According to paper PMC2247230, “Synthesis of somatostatin by breast cancer cells and their inhibition by exogenous somatostatin and sandostatin” (British Journal of Cancer, 1989):
Where two headings read alike, the source gives them in different places.

Key:
ZR-75-1 cells = test: Cell proliferation assay (electronic cell counting), ZR-75-1; format: cell-based, human
Source text: Somatostatin is a neuroendocrine hormone which inhibits not only exocrine and endocrine secretion, but also mito- genesis. Somatostatin-synthesising cells have a widespread anatomical distribution, being found in regions of the central nervous system and gastrointestinal tract. […] There have been few studies of the presence of SLI in breast cancer specimens. […] Inhibition of tumour growth may be indirect, through inhibition of endocrine secretion. […] Correspondence: J. Nelson. Received 5 October 1988, and in revised form, 9 January 1989. Materials and methods Tissue culture All media and fetal calf serum (FCS) were obtained from Flow Laboratories, Rickmansworth, UK. The same batch of serum was used throughout. MCF-7 cells, a gift from Dr C.R. Green, Liverpool University, were routinely cultured in modified Eagle's mini- mal essential medium (MEM) supplemented with non- essential amino acids, sodium pyruvate (1 mM) and 5% v/v FCS. ZR-75-1 and MDA-MB-436 cells were obtained from the American Tissue Culture Collection. ZR-75-1 cells were cultured in RPMI 1640 medium containing 5% FCS. MDA- MB-436 cells were cultured in Liebowitz 15 medium contain- ing 10% FCS. All media contained Phenol Red and were supplemented with penicillin (1OOIUml-1) and streptomycin (100 ug ml- 1). Cell proliferation assays To assess the effects of somatostatin and Sandostatin, 5 x 10^4 cells were inoculated in 24-well tissue culture plates (Costar, Northumbria Biologicals Ltd, Cramlington, UK)- .After one day, plating efficiency was determined in a repre- sentative set of wells (cell counts, day 0) by trypsinisation and electronic cell counting (Coulter counter model ZBI, Coulter Electronics, Luton, UK). At this time medium was removed from remaining wells and replaced with fresh medium (control) or medium containing peptide (treatment) as indicated. Control and treatment media were either unchanged or changed daily during the course of the experi- ments, or control and treatment media were removed after one day exposure (i.e. from day 0 to day 1) and replaced by control medium. Thereafter cells were removed and counted at the times indicated.

MDA-MB-436 cells = tested on: MDA-MB-436 cells
Source text: (§1) Somatostatin is a neuroendocrine hormone which inhibits not only exocrine and endocrine secretion, but also mito- genesis. Somatostatin-synthesising cells have a widespread anatomical distribution, being found in regions of the central nervous system and gastrointestinal tract. […] There have been few studies of the presence of SLI in breast cancer specimens. […] Inhibition of tumour growth may be indirect, through inhibition of endocrine secretion. […] Correspondence: J. Nelson. Received 5 October 1988, and in revised form, 9 January 1989. Materials and methods Tissue culture All media and fetal calf serum (FCS) were obtained from Flow Laboratories, Rickmansworth, UK. The same batch of serum was used throughout. […] Cell proliferation assays To assess the effects of somatostatin and Sandostatin, 5 x 10^4 cells were inoculated in 24-well tissue culture plates (Costar, Northumbria Biologicals Ltd, Cramlington, UK)- .After one day, plating efficiency was determined in a repre- sentative set of wells (cell counts, day 0) by trypsinisation and electronic cell counting (Coulter counter model ZBI, Coulter Electronics, Luton, UK). […] Thereafter cells were removed and counted at the times indicated.

MCF-7 cells = test: Cell proliferation assay (electronic cell counting), MCF-7; format: cell-based, human; details: 500 ng ml-1, 6 days continuous exposure without medium changes, MEM plus 5% FCS (Figure 4); mean of 3-5 wells
Source text: as §1

[1] = tested on: Antiserum to somatostatin-14; test: Somatostatin radioimmunoassay, specificity (displacement of 125I-Tyr11 somatostatin-14); format: binding; details: 20 h at 4 C, charcoal/dextran separation; for sensitivity of the RIA to the substance (displacement of label): triplicate
[2] = rat kidney homogenates, ref Pless et al., 1986, cited from earlier work
Source text: In the presence of fe ...

[3] = read-out RIA

## Sandostatin
ZR-75-1 cells; 500 ng ml-1, 5% FCS, exposure day 0 to day 1, then control medium (Figures 1c, 2b)
  effect of one day exposure followed by return to control medium on cell proliferation: much less effective in inhibiting cell proliferation than a continuous exposure
ZR-75-1 cells; continuous exposure to single or repeated doses of 500 ng ml-1, in the presence of FCS, day 6 (Figures 1a, b and 2a)
  inhibition of ZR-75-1 cell proliferation compared with relevant control populations: > 3 fold
ZR-75-1 cells; in the presence of insulin, 5% FCS (results not shown)
  influence of insulin on the inhibitory effect: not more pronounced in the presence of insulin
ZR-75-1 cells; range 10-500 ng ml-1 tested, without medium changes
  concentration giving consistent inhibition of growth: 500 ng/mL
ZR-75-1 cells; range 10-500 ng ml-1 tested, without medium changes, inhibition at low concentrations variable
  lowest concentration at which inhibition was occasionally observed: 25 ng ml -1
MDA-MB-436 cells; 500 ng ml-1, 6 days continuous exposure without medium changes, L-15 plus 10% FCS (Figure 4), mean of 3-5 wells
  effect of continuous exposure on growth (final cell numbers): inhibition of growth
MCF-7 cells
  effect of continuous exposure on growth (final cell numbers): inhibition of growth
[1]; 500 fmol per tube
  sensitivity of the RIA to the substance (displacement of label): insensitive
[2]; up to 20h
  degradation by homogenate: virtually unaffected

## somatostatin-28
[1]; compared with somatostatin-14
  displacement of label in the RIA: displacement of label was found with somatostatin-28 at higher molarities

## leupeptin
[1]; 2,000 fmol per tube
  sensitivity of the RIA to the substance (displacement of label): insensitive

## bacitracin
[1]; 1,000 fmol per tube
  sensitivity of the RIA to the substance (displacement of label): insensitive

## C[C@H](N)C(=O)NCC(=O)N[C@H]1CSSC[C@@H](C(=O)O)NC(=O)[C@H](CO)NC(=O)[C@H]([C@@H](C)O)NC(=O)[C@H](Cc2ccccc2)NC(=O)[C@H]([C@@H](C)O)NC(=O)[C@H](CCCCN)NC(=O)[C@H](Cc2c[nH]c3ccccc23)NC(=O)[C@H](Cc2ccccc2)NC(=O)[C@H](Cc2ccccc2)NC(=O)[C@H](CC(N)=O)NC(=O)[C@H](CCCCN)NC1=O [somatostatin]
MDA-MB-436 cells; serum-free conditions (results not shown)
  cytotoxic effects in serum-free conditions: no cytotoxic effects
[3]; after two days in 5% FCS with or without cells
  exogenous somatostatin remaining, as measured by RIA: undetectable
[3]; in the presence of 5% FCS alone (no cells), after one day incubation
  exogenous somatostatin remaining, as measured by RIA: < 50%
[3]; in the presence of cells and 5% FCS, RPMI 1640, ZR-75-1 cells, 500 ng ml-1, after one day incubation
  exogenous somatostatin remaining, as measured by RIA: < 20%
[2]; within 1 h
  remaining of starting levels after degradation: < 25%

## EGF
[1]; 1,000 fmol per tube
  sensitivity of the RIA to the substance (displacement of label): insensitive

B1: prolactin (protein, UniProt P01236 29-227, looked up)
Prolactin: LPICPGGAARCQVTLRDLFDRAVVLSHYIHNLSSEMFSEFDKRYTHGRGFITKAINSCHTSSLATPEDKEQAQQMNQKDFLSLIVSILRSWNEPLYHLVTEVRGMQEAPEAILSKAVEIEEQTKRLLEGMELIVSQVHPETKENEIYPVWSGLPSLQMADEESRLSAYYNLLHCLRRDSHKIDNYLKLLKCRIIHNNNC
notes: substance tested for cross-reaction in the somatostatin RIA
[1]; 2,000 fmol per tube
  sensitivity of the RIA to the substance (displacement of label): insensitive
